Columns and labels:
HT-1080 cells = test: Cell viability assay (Alamar Blue), lethal compounds with or without modulators; assay type: cell-based; settings: for effect of ferroptosis inhibitors (α-tocopherol, deferoxamine) on lethality: cotreatment; for effect on FIN56 lethality: modulator cotreatment or pretreatment
Experimental: 1,000 cells per 36 μl were seeded in each well in 384-well plates. Lethal compounds were dissolved, and a twofold, 12-point dilution series was prepared in DMSO. Compound solutions were further diluted with media at 1:25, and 4 μl per well of the diluted solutions was added to cell cultures immediately after cells were seeded. […] When other cell-death-modulating compounds (100 nM sodium selenite, 1 μM cerivastatin, 100 μg/mL mevalonic acid) were used in cotreatments, they were supplemented to cell culture for 24 h before lethal compounds were added to cell culture, after which cells were further incubated for 24 h at 37° C. under 5% CO2. On the day of the viability measurement, we added 10 μl per well of 50% Alamar Blue diluted in media (Life Technologies) and further incubated the cells at 37° C. for 6 h. Fluorescence intensity (excitation/emission: 530/590) was measured with a Victor 3 plate reader (PerkinElmer), and the normalized viability was calculated as VL=(IL−I0)/(IV−I0), where VL, I0, IV, and IL are the normalized viability and the raw fluorescence intensities from the wells containing media, cells treated with a vehicle (negative control), and cells with the lethal compound (L), respectively. When the effect of a chemical modulator (M) on L was calculated, we instead used the equation VL|M=(IM,L−I0)/(IM,V−I0), where VL|M, IM,L and IM,V are the normalized viability, and fluorescence intensity from cells treated with […], respectively. The viability was typically measured in biological triplicate unless otherwise specified. A representative dose-response curve, the mean and standard error of normalized viability from one replicate were plotted. […]

GPX4 = test: Western blotting of GPX4 protein abundance; assay type: cell-based, human; settings: BJeLR; cotreatment with 100 μM α-tocopherol; 10 h; FIN56 5 μM
Experimental: Seeded 300,000 cells (HT-1080 or BJeLR) per well in six-well plates. For cotreatment, ferroptosis inducers (10 μM erastin for 11 h, 0.5 μM (1S, 3R)-RSL3 for 2 h, or 5 μM FIN56) and 100 μM α-tocopherol were added to cell culture at the same time, and cells were then incubated for 10 h (FIG. 2E). When other death-modulating compounds (100 nM sodium selenite, 1 μM cerivastatin, 100 μg/mL mevalonic acid, 30 μM C75, or 2 μM cerulenin) were used in cotreatments, cells were pre-incubated with the modulators for 24 h before being treated with ferroptosis inducers for 6 h. Cell lysis, SDS-PAGE and protein transfer to PVDF membrane were performed as previously described (Dixon et al. 2012). We used the following antibodies: anti-human α-tubulin (Santa Cruz Biotechnology, sc-32293, 1:10,000 dilution), anti-human GPX4 (Abcam, ab41787, 1:2,000 dilution), anti-human GPX1 (R&D Systems, AF3798, 1:1,000 dilution), and anti-human SQS (Abcam, ab109723 for full-length, ab195046 for truncated, both at 1:1,000 dilution). Secondary antibodies were from LI-COR (1:3,000 dilution). The PVDF membranes labeled with primary and secondary antibodies were scanned using an Odyssey Imaging System (LI-COR). Experiments were performed in biological triplicates, and the mean±s.e. of intensity was plotted.

HT-1080 = test: Modulatory profiling: Alamar Blue viability, lethal compound cotreated with death modulator (EC50, AUC); assay type: cell-based; parameters: AUC, modulator HT.3MA / AUC, modulator HT.ALLN / AUC HT.ATA / AUC HT.ActD / AUC HT.BHA / AUC HT.BHT / AUC HT.BocD / AUC HT.CHX / AUC HT.Co2+ / AUC HT.DPQ / AUC HT.EGTA / AUC HT.Lmim / AUC HT.NAD+ / AUC HT.Nec-1 / AUC HT.SP600125 / AUC HT.TLCK / AUC HT.U0126: unit not given beside the values
BJeLR = test: as above; assay type: cell-based, human; parameters: AUC, modulator BJ.Gd3+ / AUC, modulator BJ.LNAME / AUC, modulator BJ.Lmin / AUC, modulator BJ.3MA / AUC, modulator BJ.ALLN / AUC, modulator BJ.Boc D / AUC, modulator BJ.CHX / AUC, modulator BJ.Co2+ / AUC, modulator BJ.Nec-1 / AUC, modulator BJ.Pepstatin / AUC, modulator BJ.TLCK / AUC, modulator BJ.atoc / AUC, modulator BJ.trolox / AUC, modulator BJ.zVAD: unit not given beside the values; settings: BJeLR cells, modulatory profile value (AUC)
[1] = Cobalt (II) binding assay in vitro (absorbance spectrum); settings: absorbance 300-700 nm
Experimental: For each cluster I compound (CIL13, −52, and −64), prepared two-fold dilution series with DMSO. We added 30 μL per well of either water or 10 μM cobalt (II) chloride solution to each well of a 384-well plate. Dilution series of each compound in DMSO were added by 10 μL per well. After solutions had been mixed by shaking of the plate using a Victor 3 plate reader (PerkinElmer), absorbance was scanned between 300 and 700 nm for each compound. Finally the following Absorbance value for each compound was plotted (see FIG. 9B):
[formula] where Abs is the absorbance at each wavelength. Search of Commercially Available Structural Analogs of CIL41/70.

For `COC(=O)c1ccc([C@H]2c3[nH]c4ccccc4c3C[C@H](C(=O)OC)N2C(=O)CCl)cc1` [(1S, 3R)-RSL3], the “suppression of lethality by mevalonate-pathway modulators (FPP, YM-53601, idebenone) and α-tocopherol” value (HT-1080 cells; HT-1080 cells, modulatory profiling scheme) was “potently suppressed by all the compounds” and the “abundance of GPX4 protein” value (GPX4) was “Neither erastin nor (1S, 3R)-RSL3 affected the abundance of GPX4 to the same extent as FIN56”.

With `N[C@@H]1CCCN(c2c(/C=C3\SC(=O)NC3=O)cccc2-c2ccccc2)C1` [AZD-1208] the “effect of ferroptosis inhibitors (α-tocopherol, deferoxamine) on lethality” value (HT-1080 cells; HT-1080 cells) was “the lethality was not suppressed by αToc”.

In the case of `O=C(O)CN(CC(=O)O)c1ccccc1OCCOc1ccccc1N(CC(=O)O)CC(=O)O` [BAPTA], the “effect on FIN56 lethality” value (HT-1080 cells; HT-1080 cells) was “suppressed it”.

In the case of `C(=N\Nc1nc2ccccc2s1)/c1ccccn1` [CIL52], the “AUC HT.ATA” value (HT-1080; HT-1080, modulator ATA) was 0.03417, the “AUC HT.ActD” value (HT-1080; HT-1080, modulator ActD) was 0.07379 and the “AUC HT.BHA” value (HT-1080; HT-1080, modulator BHA) was −0.01302. For the same molecule, the “AUC HT.BHT” value (HT-1080; HT-1080, modulator BHT) was −0.06719, the “AUC HT.BocD” value (HT-1080; HT-1080, modulator BocD) was 0.008582 and the “AUC HT.CHX” value (HT-1080; HT-1080, modulator CHX) was 0.1474. The “AUC HT.Co2+” value (HT-1080; HT-1080, modulator Co2+) was 0.4155, the “AUC HT.CspA” value (HT-1080; HT-1080, modulator CspA) was 0.05641 and the “AUC HT.DPQ” value (HT-1080; HT-1080, modulator DPQ) was −0.0133. The “AUC HT.EGTA” value (HT-1080; HT-1080, modulator EGTA) was 0.09078, the “AUC HT.Gd3+” value (HT-1080; HT-1080, modulator Gd3+) was −0.006922 and the “AUC HT.LNAME” value (HT-1080; HT-1080, modulator LNAME) was −0.009412. For the same molecule, the “AUC HT.Lmim” value (HT-1080; HT-1080, modulator Lmim) was 0.02654, the “AUC HT.NAD+” value (HT-1080; HT-1080, modulator NAD+) was 0.01945 and the “AUC HT.NMMA” value (HT-1080; HT-1080, modulator NMMA) was −0.01196. For the same molecule, the “HT.atoc (AUC)” value (HT-1080; HT-1080, modulator atoc) was 0.07146, the “HT.bCarotene (AUC)” value (HT-1080; HT-1080, modulator bCarotene) was 0.06784 and the “HT.deferox (AUC)” value (HT-1080; HT-1080, modulator deferox) was 0.2325. The “HT.digoxin (AUC)” value (HT-1080; HT-1080, modulator digoxin) was −0.005506, the “HT.trolox (AUC)” value (HT-1080; HT-1080, modulator trolox) was −0.03942 and the “HT.zVAD (AUC)” value (HT-1080; HT-1080, modulator zVAD) was 0.02339. For the same molecule, the “effect of cobalt (II) on lethality” value (HT-1080; modulatory profiles, CoCl2 supplementation) was “inhibited by cobalt (II)”, the “AUC, modulator BJ.3MA” value (BJeLR; lethal compound cotreated with modulator 3MA) was 0.0119 and the “AUC, modulator BJ.ALLN” value (BJeLR; lethal compound cotreated with modulator ALLN) was 0.01092. For the same molecule, the “AUC, modulator BJ.Boc D” value (BJeLR; lethal compound cotreated with modulator Boc D) was 0.0184, the “AUC, modulator BJ.CHX” value (BJeLR; lethal compound cotreated with modulator CHX) was 0.03724 and the “AUC, modulator BJ.Co2+” value (BJeLR; lethal compound cotreated with modulator Co2+) was 0.7978. The “AUC, modulator BJ.DPQ” value (BJeLR; lethal compound cotreated with modulator DPQ) was 0.03648, the “AUC, modulator BJ.Gd3+” value (BJeLR; lethal compound cotreated with modulator Gd3+) was 0.08327 and the “AUC, modulator BJ.LNAME” value (BJeLR; lethal compound cotreated with modulator LNAME) was −0.01578. The “AUC, modulator BJ.Lmin/NAD+” value (BJeLR; lethal compound cotreated with modulator Lmin/NAD+) was 0.08265, the “AUC, modulator BJ.Lmin” value (BJeLR; lethal compound cotreated with modulator Lmin) was 0.007783 and the “AUC, modulator BJ.NAD+” value (BJeLR; lethal compound cotreated with modulator NAD+) was 0.09321. The “AUC, modulator BJ.NMMA” value (BJeLR; lethal compound cotreated with modulator NMMA) was −0.006118, the “AUC, modulator BJ.Nec-1” value (BJeLR; lethal compound cotreated with modulator Nec-1) was 0.03888 and the “AUC, modulator BJ.Pepstatin” value (BJeLR; lethal compound cotreated with modulator Pepstatin) was 0.02196. For the same molecule, the “AUC, modulator BJ.TLCK” value (BJeLR; lethal compound cotreated with modulator TLCK) was 0.284 and the “binding to cobalt (II) in vitro” value [1] was “bound to cobalt (II) in vitro”.

For `CN1CCCN(C(=O)c2cccc(-c3ccc(/C=C4/C(=O)Nc5ccc(Cl)cc54)o3)c2)CC1` [CX-6258], the “effect of ferroptosis inhibitors (α-tocopherol, deferoxamine) on lethality” value (HT-1080 cells; HT-1080 cells) was “the lethality was not suppressed by αToc”.

In the case of `O=C(O)CN(CCOCCOCCN(CC(=O)O)CC(=O)O)CC(=O)O` [EGTA, Ethyleneglycol-O,O′-bis(2-aminoethyl)-N,N,N′,N′-tetraacetic acid], the “effect on FIN56 lethality” value (HT-1080 cells; HT-1080 cells) was “suppressed it”.

With `CC(C)=CCC/C(C)=C/CC/C(C)=C/COP(=O)(O)OP(=O)(O)O.N.N.N` [FPP, farnesyl-PP] the “effect on FIN56 lethality” value (HT-1080 cells; HT-1080 cells) was “suppressed the lethality of FIN56”.

With `O=S(=O)(NC1CCOCC1)c1ccc2c(c1)C(=NO)c1cc(S(=O)(=O)NC3CCOCC3)ccc1-2` [SRS8-18, 9-(hydroxyimino)-N2,N7-bis(tetrahydro-2H-pyran-4-yl)-9H-fluorene-2,7-disulfonamide] the “ferroptosis-inducing activity of FIN56 analogs” value (HT-1080 cells; HT-1080, 48 hrs) was “complete loss of activity”.
